Results from US20230339939A1 (Bayer Aktiengesellschaft, priority 2020, published 2023).
Like-named read-outs stand apart in the source and are kept apart here.

Assays:
CSNK1A1 = CSNK1A1 (Homo sapiens (Human), UniProt P48729); assay: CSNK1A1 High ATP Assay (ADP-Glo, 1 mM ATP); type: biochemical; settings: median, read-out: CSNK1A1 high ATP assay IC50 [mol/l] (median)
Protocol: CSNK1A1-inhibitory activity of compounds of the present invention in presence of 1 mM adenosine-tri-phosphate (ATP) was quantified employing the CSNK1A1-high-ATP-assay as described in the following paragraphs. In essence, the enzyme activity is measured by quantification of the adenosine-di-phosphate (ADP), which is generated as a co-product of the enzyme reaction, via the “ADP-Glo™ Kinase Assay” kit from the company Promega. This detection system works as follows: In a first step the ATP not consumed in the kinase reaction is quantitatively converted to cAMP employing an adenylate cyclase (“ADP-Glo-reagent”), then the adenylate cyclase is stopped and the ADP generated in the kinase reaction converted to ATP which generates in a luciferase-based reaction a glow-luminescence signal (“Kinase Detection Reagent”).
Recombinant fusion protein of N-terminal Glutathion-S-Transferase (GST) and full-length human CSNK1A1, expressed by baculovirus infected insect cells and purified via Glutathion affinity chromatography, was purchased from Life Technologies (product no. PV4174) and used as enzyme. As substrate for the kinase reaction the biotinylated peptide biotin-Ahx-KRRRAL-pS-VASLPGL (C-terminus in amide form) was used which can be purchased e.g. from the company Biosyntan (Berlin-Buch, Germany).
For the assay 50 nl of a 100 fold concentrated solution of the test compound in DMSO was pipetted into a white low volume 384-well microtiter plate (Greiner Bio-One, Frickenhausen, Germany), 2 μL of a solution of CSNK1A1 in aqueous assay buffer [50 mM HEPES pH 7.5, 10% (v/v) glycerol, 10 mM MgCl2, 50 mM NaCl, 1 mM dithiothreitol, 0.01% (w/v) bovine serum albumin, 0.01% (v/v) Triton X-100] were added and the mixture was incubated for 15 min at 22° C. to allow pre-binding of the test compounds to the enzyme before the start of the kinase reaction. […] The concentration of CSNK1A1 was adjusted depending of the activity of the enzyme lot and was chosen appropriate to have the assay in the linear range, a typical concentration is about 0.4 ng/μL. The reaction was stopped by the addition of 2.5 μL of “ADP-Glo-reagent” (1:1.5 fold diluted with water) and the resulting mixture was incubated at 22° C. for 1 h to convert the ATP not consumed in the kinase reaction completely […]. Subsequently 2.5 μL of the “kinase detection reagent” (1.2 fold more concentrated than recommended by the producer) were added, the resulting mixture was incubated at 22° C. for 1 h and then the luminescence measured with a suitable measurement instrument (e.g. Viewlux™ from Perkin-Elmer). The amount of emitted light was taken as a measure for the amount of ADP generated and thereby for the activity of the CSNK1A1.

[1] = target: wild-type Epidermal Growth Factor Receptor (EGFR) (Homo sapiens (Human), UniProt P00533); assay: WT-EGFR Kinase Assay (TR-FRET, 2 mM ATP); type: biochemical
wild-type Epidermal Growth Factor Receptor (EGFR), sequence (P00533 669-1210): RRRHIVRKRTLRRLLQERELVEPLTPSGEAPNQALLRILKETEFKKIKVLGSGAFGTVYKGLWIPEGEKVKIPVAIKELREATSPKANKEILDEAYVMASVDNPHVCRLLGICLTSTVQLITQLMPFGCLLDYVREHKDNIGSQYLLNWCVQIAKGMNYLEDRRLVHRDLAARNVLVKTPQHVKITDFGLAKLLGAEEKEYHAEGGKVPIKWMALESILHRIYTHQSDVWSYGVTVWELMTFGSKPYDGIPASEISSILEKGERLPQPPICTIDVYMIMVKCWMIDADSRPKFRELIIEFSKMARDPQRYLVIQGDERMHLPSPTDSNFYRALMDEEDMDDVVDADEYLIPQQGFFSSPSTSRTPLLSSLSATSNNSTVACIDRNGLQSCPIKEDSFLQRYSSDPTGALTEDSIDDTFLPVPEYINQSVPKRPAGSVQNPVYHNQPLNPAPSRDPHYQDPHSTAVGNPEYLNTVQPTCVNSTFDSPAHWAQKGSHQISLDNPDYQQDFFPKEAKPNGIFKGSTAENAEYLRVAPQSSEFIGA
How it was run: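 GST-fused human EGFR fragment (R669-A1210) from Sf9 cells, typically 7.6 pg/μL, pre-incubated with compound 15 min at 22° C in Hepes pH 7.0 buffer with MgCl2, DTT and vanadate; biotinylated peptide substrate. After EDTA stop, phosphopeptide detected by TR-FRET (anti-phosphotyrosine Tb-cryptate/streptavidin-XL665), 665/620 nm emission ratio.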

[2] = read-out: EGFR Wildtype 2 mM ATP IC50 [mol/l] (median)

CSNK1A1, sequence (P48729 whole entry): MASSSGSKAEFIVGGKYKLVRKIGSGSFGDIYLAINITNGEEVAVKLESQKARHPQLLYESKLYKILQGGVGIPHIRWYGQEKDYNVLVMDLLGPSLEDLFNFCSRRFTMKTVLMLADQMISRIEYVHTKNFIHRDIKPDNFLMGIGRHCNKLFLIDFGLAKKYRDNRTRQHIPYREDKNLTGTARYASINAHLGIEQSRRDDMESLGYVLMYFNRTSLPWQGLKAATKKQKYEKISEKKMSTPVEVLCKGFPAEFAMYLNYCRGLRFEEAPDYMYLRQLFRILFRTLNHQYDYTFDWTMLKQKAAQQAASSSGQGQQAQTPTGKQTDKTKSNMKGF

Row | Structure (SMILES) | IC50 (CSNK1A1) [nM] | IC50 [1, 2] [nM] | IC50 ([1]; median) [nM]
1 | COc1ccc2[nH]c(-c3ccnc(NC(=O)Cc4ccc(F)cc4)c3)c(-c3ccccn3)c2n1 [Example 32, 2-(4-fluorophenyl)-N-{4-[5-methoxy-3-(pyridin-2-yl)-1H-pyrrolo[3,2-b]pyridin-2-yl]pyridin-2-yl}acetamide] | 23.3 | > 20000 | –
2 | O=C(Cc1ccc(Cl)cc1)Nc1cc(-c2[nH]c3cccnc3c2-c2ccccn2)ccn1 [Example 42, 2-(4-chlorophenyl)-N-{4-[3-(pyridin-2-yl)-1H-pyrrolo[3,2-b]pyridin-2-yl]pyridin-2-yl}acetamide] | 7.14 | > 20000 | –
3 | COCC(C(=O)Nc1cc(-c2[nH]c3cccnc3c2-c2ccccn2)ccn1)c1ccc(F)cc1 (racemic) [Example 43, (2RS)-2-(4-fluorophenyl)-3-methoxy-N-(4-(3-(pyridin-2-yl)-1H-pyrrolo[3,2-b]pyridin-2-yl)pyridin-2-yl)propanamide] | 40.1 | – | > 20000
4 | CC(C(=O)Nc1cc(-c2[nH]c3cccnc3c2-c2ccccn2)ccn1)c1ccc(F)cc1 (racemic) [Example 6, 2-(4-fluorophenyl)-N-{4-[3-(pyridin-2-yl)-1H-pyrrolo[3,2-b]pyridin-2-yl]pyridin-2-yl}propanamide] | 8.47 | – | > 20000
5 | Cc1cc(CC(=O)Nc2cc(-c3[nH]c4cccnc4c3-c3ccccn3)ccn2)ccc1F [Example 41, 2-(4-fluoro-3-methylphenyl)-N-{4-[3-(pyridin-2-yl)-1H-pyrrolo[3,2-b]pyridin-2-yl]pyridin-2-yl}acetamide] | 19 | > 20000 | –
6 | COCCc1ccnc2c(-c3ccccn3)c(-c3ccnc(NC(=O)Cc4ccc(F)cc4)c3)[nH]c12 [Example 36, 2-(4-fluorophenyl)-N-{4-[7-(2-methoxyethyl)-3-(pyridin-2-yl)-1H-pyrrolo[3,2-b]pyridin-2-yl]pyridin-2-yl}acetamide] | 31.8 | > 20000 | –
7 | O=C(Cc1ccc(F)cc1)Nc1cc(-c2[nH]c3c(C4CC4)ccnc3c2-c2ccccn2)ccn1 [Example 35, N-{4-[7-cyclopropyl-3-(pyridin-2-yl)-1H-pyrrolo[3,2-b]pyridin-2-yl]pyridin-2-yl}-2-(4-fluorophenyl)acetamide] | 6.39 | > 20000 | –
8 | CC(C)C(C(=O)Nc1cc(-c2[nH]c3ccc(F)nc3c2-c2ccccn2)ccn1)c1ccc(F)cc1 (single isomer, unassigned; (+)) [Example 26, (+)-2-(4-fluorophenyl)-N-{4-[5-fluoro-3-(pyridin-2-yl)-1H-pyrrolo[3,2-b]pyridin-2-yl]pyridin-2-yl}-3-methylbutanamide] | 48.6 | > 20000 | –
9 | COc1ccnc2c(-c3ccccn3)c(-c3ccnc(NC(=O)Cc4ccc(F)cc4)c3)[nH]c12 [Example 31, 2-(4-fluorophenyl)-N-{4-[7-methoxy-3-(pyridin-2-yl)-1H-pyrrolo[3,2-b]pyridin-2-yl]pyridin-2-yl}acetamide] | 5.63 | > 20000 | –
10 | O=C(Cc1ccc(F)cc1)Nc1cc(-c2[nH]c3ccc(Cl)nc3c2-c2ccccn2)ccn1 [Example 23, N-{4-[5-chloro-3-(pyridin-2-yl)-1H-pyrrolo[3,2-b]pyridin-2-yl]pyridin-2-yl}-2-(4-fluorophenyl)acetamide] | 40.9 | > 20000 | –
11 | CC(C(=O)Nc1cc(-c2[nH]c3ccc(F)nc3c2-c2ccccn2)ccn1)c1ccc(F)cc1 (racemic) [Example 1, 2-(4-fluorophenyl)-N-{4-[5-fluoro-3-(pyridin-2-yl)-1H-pyrrolo[3,2-b]pyridin-2-yl]pyridin-2-yl}propanamide] | 16 | – | > 20000
12 | CC(C(=O)Nc1cc(-c2[nH]c3cccnc3c2-c2ccccn2)ccn1)c1ccc(F)cc1 (single isomer, unassigned; (-)) [Example 8, (−)-2-(4-fluorophenyl)-N-{4-[3-(pyridin-2-yl)-1H-pyrrolo[3,2-b]pyridin-2-yl]pyridin-2-yl}propanamide] | 334 | > 20000 | –
13 | O=C(Cc1ccc(F)cc1)Nc1cc(-c2[nH]c3cccnc3c2-c2ncccn2)ccn1 [Example 51, 2-(4-fluorophenyl)-N-{4-[3-(pyrimidin-2-yl)-1H-pyrrolo[3,2-b]pyridin-2-yl]pyridin-2-yl}acetamide] | 180 | > 20000 | –
14 | O=C(Cc1ccc(F)cc1)Nc1cc(-c2[nH]c3cc(F)cnc3c2-c2ccccn2)ccn1 [Example 9, 2-(4-fluorophenyl)-N-{4-[6-fluoro-3-(pyridin-2-yl)-1H-pyrrolo[3,2-b]pyridin-2-yl]pyridin-2-yl}acetamide] | 33.6 | > 20000 | –
15 | O=C(Cc1ccc(F)cc1)Nc1cc(-c2[nH]c3ccc(F)nc3c2-c2ccccn2)ccn1 [Example 4, 2-(4-fluorophenyl)-N-{4-[5-fluoro-3-(pyridin-2-yl)-1H-pyrrolo[3,2-b]pyridin-2-yl]pyridin-2-yl}acetamide] | 5.72 | > 20000 | –
16 | CC(C(=O)Nc1cc(-c2[nH]c3cccnc3c2-c2ccccn2)ccn1)c1ccc(F)cc1 (single isomer, unassigned; (+)) [Example 7, (+)-2-(4-fluorophenyl)-N-{4-[3-(pyridin-2-yl)-1H-pyrrolo[3,2-b]pyridin-2-yl]pyridin-2-yl}propanamide] | 4.32 | – | > 20000
17 | O=C(Cc1ccc(F)cc1)Nc1cc(-c2[nH]c3cccnc3c2-c2ncccn2)ccn1 [Example 16, 2-(4-fluorophenyl)-N-{4-[3-(pyrimidin-2-yl)-1H-pyrrolo[3,2-b]pyridin-2-yl]pyridin-2-yl}acetamide] | 97.9 | > 20000 | 17500
18 | O=C(Cc1ccc(F)cc1)Nc1cc(-c2[nH]c3c(Cl)ccnc3c2-c2ccccn2)ccn1 [Example 22, N-{4-[7-chloro-3-(pyridin-2-yl)-1H-pyrrolo[3,2-b]pyridin-2-yl]pyridin-2-yl}-2-(4-fluorophenyl)acetamide] | 21.8 | > 20000 | –
19 | O=C(Cc1ccc(F)cc1)Nc1cc(-c2[nH]c3ccnnc3c2-c2ccccn2)ccn1 [Example 21, 2-(4-fluorophenyl)-N-{4-[7-(pyridin-2-yl)-5H-pyrrolo[3,2-c]pyridazin-6-yl]pyridin-2-yl}acetamide] | 25.1 | > 20000 | –
20 | O=C(Cc1ccc(F)cc1)Nc1cc(-c2[nH]c3cc(F)cnc3c2-c2ccccc2)ccn1 [Example 10, 2-(4-fluorophenyl)-N-[4-(6-fluoro-3-phenyl-1H-pyrrolo[3,2-b]pyridin-2-yl)pyridin-2-yl]acetamide] | 302 | > 20000 | –
21 | COCCC(C(=O)Nc1cc(-c2[nH]c3cccnc3c2-c2ccccn2)ccn1)c1ccc(F)cc1 (racemic) [Example 44] | 59.2 | – | > 20000
22 | CN1CCC(N(C)c2ccnc3c(-c4ccccn4)c(-c4ccnc(NC(=O)Cc5ccc(F)cc5)c4)[nH]c23)CC1 [Example 39, 2-(4-fluorophenyl)-N-(4-{7-[methyl(1-methylpiperidin-4-yl)amino]-3-(pyridin-2-yl)-1H-pyrrolo[3,2-b]pyridin-2-yl}pyridin-2-yl)acetamide] | 32.9 | 1090 | –
